From paper PMC12300041, “Tricyclic Isatin Derivatives as Anti-Inflammatory Compounds with High Kinase Binding Affinity” (Molecules, 2025) come the findings set out here.

The term IC50 denotes the point on the concentration scale where inhibition reaches its midpoint. For orientation: Kd means a measure of binding affinity in units of concentration. As usually defined, the inhibition is the drop in the measured response relative to a control, in per cent.

The structures appear in SMILES notation. Where two headings read alike, the source gives them in different places. A value given as a limit tells only on which side of the number the result lay.

Test [1] concerns NF-κB/AP-1 transcriptional activity. Put plainly: LPS-induced NF-κB/AP-1 reporter (secreted alkaline phosphatase) in THP-1Blue cells. In kind it is cell-based, human. Particulars: 250 ng/mL LPS, N.A.: not active at the highest tested concentration (50 μM), read-out: AP Production (THP-1 Cells) IC50. Here is the method:
Human THP-1Blue monocytic cells stably transfected with a secreted embryonic alkaline phosphatase gene that is under control of a NF-κB/AP-1-inducible promoter were obtained from InvivoGen (San Diego, CA, USA). These cells were cultured in RPMI 1640 medium (Mediatech Inc., Herndon, VA, USA) containing 10% (v/v) fetal bovine serum (FBS), 100 μg/mL streptomycin, 100 U/mL penicillin, 100 μg/mL phleomycin (Zeocin), and 10 μg/mL blasticidin S (all from Sigma-Aldrich, St. Louis, MO, USA).
After incubation of THP-1Blue cells (2 × 10^5 cells/well) with test compounds or control DMSO (1% final concentration) for 30 min, 250 ng/mL of lipopolysaccharide (LPS; from Escherichia coli strain 0111:B4) was added, and the cells were incubated for 24 h. Secreted alkaline phosphatase activity was assessed in the cell supernatants using the QUANTI-Blue mix (InvivoGen; absorbance at 655 nm) and compared with positive controls treated with LPS alone. Compound concentrations that inhibited 50% of the NF-κB reporter activity (IC50) were determined.

The target in another test is T1, HASPIN (Homo sapiens, UniProt Q8TF76).
T1 construct: purchased Eurofins Pharma Discovery (KINOMEscan)
T1 sequence (Q8TF76 1-798): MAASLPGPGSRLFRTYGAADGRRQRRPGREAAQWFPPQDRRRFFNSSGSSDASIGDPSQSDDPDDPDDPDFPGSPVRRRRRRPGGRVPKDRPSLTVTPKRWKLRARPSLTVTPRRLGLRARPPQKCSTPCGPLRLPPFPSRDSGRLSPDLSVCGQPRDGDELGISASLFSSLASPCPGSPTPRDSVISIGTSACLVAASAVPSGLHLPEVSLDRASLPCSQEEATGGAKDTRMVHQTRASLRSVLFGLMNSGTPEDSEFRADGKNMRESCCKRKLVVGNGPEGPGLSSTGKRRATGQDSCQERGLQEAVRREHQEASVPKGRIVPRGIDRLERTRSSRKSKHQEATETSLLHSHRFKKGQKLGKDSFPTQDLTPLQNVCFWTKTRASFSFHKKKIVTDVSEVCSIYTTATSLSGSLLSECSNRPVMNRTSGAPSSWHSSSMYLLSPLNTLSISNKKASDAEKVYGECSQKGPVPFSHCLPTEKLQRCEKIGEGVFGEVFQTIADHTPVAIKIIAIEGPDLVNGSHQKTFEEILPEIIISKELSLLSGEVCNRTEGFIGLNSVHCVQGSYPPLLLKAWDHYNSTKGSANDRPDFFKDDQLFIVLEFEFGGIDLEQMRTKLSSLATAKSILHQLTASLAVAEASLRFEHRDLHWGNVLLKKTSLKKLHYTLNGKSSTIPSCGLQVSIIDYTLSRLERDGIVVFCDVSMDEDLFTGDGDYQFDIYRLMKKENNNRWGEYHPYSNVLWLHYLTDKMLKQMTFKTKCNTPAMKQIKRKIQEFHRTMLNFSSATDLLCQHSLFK
Briefly: KINOMEscan. In kind it is binding. Particulars: for Kd: Haspin, N.B.: no binding at concentrations up to 30 µM. Here is the method:
(§1) Kinase profiling was performed by KINOMEscan (Eurofins Pharma Discovery, San Diego, CA, USA), using a panel of 423 protein kinases, as described previously. Compounds were submitted for dissociation constant (Kd) determination toward several target kinases using KINOMEscan. […] Binding reactions were performed at room temperature for 1 h, and the fraction of kinase not bound to the test compound was determined by capture with an immobilized affinity ligand and quantified by quantitative polymerase chain reaction. The primary screening at fixed concentrations of the compound was performed in duplicate. For dissociation constant Kd determination, a 12-point half-log dilution series (a maximum concentration of 33 μM) was used.

In another test the target is T2, HIPK1 (Homo sapiens, UniProt Q86Z02).
T2 construct: purchased Eurofins Pharma Discovery (KINOMEscan)
Put plainly: KINOMEscan. Particulars: for Kd: HIPK1, N.B.: no binding at concentrations up to 30 µM. In kind it is binding. How it is done:
as §1

The test system of test [2] is EGFR (L747-T751 del, Sins). Briefly: KINOMEscan. In kind it is binding, human. Particulars: 10 μM. How it is done:
as §1

In another test the test system is FLT3 (ITD, D835V). Briefly: KINOMEscan. In kind it is binding, human. Particulars: 10 μM. Here is the method: as §1
The next test relates to FLT3 (ITD, F691L). Briefly: KINOMEscan. Type of test: binding, human. The conditions noted are these: 10 μM. Here is the method:
as §1

The subject of a further test is FLT3 (ITD). Put plainly: KINOMEscan. In kind it is binding, human. The conditions noted are these: 10 μM. How it is done: as §1
For a further test, the target named is T3, INSR (Homo sapiens, UniProt P06213).
T3 construct: purchased Eurofins DiscoverX KINOMEscan
Put plainly: KINOMEscan. Type of test: binding. How it is done: as §1

The target in another test is T4, PIP5K1A (Homo sapiens, UniProt Q99755).
T4 construct: purchased Eurofins DiscoverX KINOMEscan
Briefly: KINOMEscan. Type of test: binding. Here is the method:
as §1

In the next test the target is T5, FLT3 (K663Q) (Homo sapiens, UniProt P36888, K663Q).
T5 construct: purchased Eurofins DiscoverX KINOMEscan
Briefly: KINOMEscan. Type of test: binding. Here is the method: as §1

The target of the next test is T6, JNK3 (Homo sapiens, UniProt P53779).
T6 construct: purchased Eurofins DiscoverX KINOMEscan
Put plainly: KINOMEscan. In kind it is binding. Here is the method:
as §1

For a further test, the target named is T7, PIK3CA (H1047Y) (Homo sapiens, UniProt P42336, H1047Y).
T7 construct: purchased Eurofins DiscoverX KINOMEscan
Briefly: KINOMEscan. Type of test: binding. How it is done:
as §1

The target of the next test is T8, MLCK (Homo sapiens, UniProt Q32MK0).
T8 construct: purchased Eurofins DiscoverX KINOMEscan
Briefly: KINOMEscan. In kind it is binding. Here is the method:
as §1

Another test has as its target T9, PIK3CA (E542K) (Homo sapiens, UniProt P42336, E542K).
T9 construct: purchased Eurofins DiscoverX KINOMEscan
Put plainly: KINOMEscan. Type of test: binding. How it is done:
as §1

For the next test, the target named is T10, CLK4 (Homo sapiens, UniProt Q9HAZ1).
T10 construct: purchased Eurofins DiscoverX KINOMEscan
Put plainly: KINOMEscan. Type of test: binding. How it is done:
as §1

The next test has as its target T11, TAOK2 (Homo sapiens, UniProt Q9UL54).
T11 construct: purchased Eurofins DiscoverX KINOMEscan
Briefly: KINOMEscan. Type of test: binding. How it is done:
as §1

In another test the target is T12, PDPK1 (Homo sapiens, UniProt O15530).
T12 construct: purchased Eurofins DiscoverX KINOMEscan
Put plainly: KINOMEscan. In kind it is binding. Here is the method: as §1

Another test concerns the target T13, MKNK1 (Homo sapiens, UniProt Q9BUB5).
T13 construct: purchased Eurofins DiscoverX KINOMEscan
Briefly: KINOMEscan. In kind it is binding. How it is done:
as §1

The target in a further test is T14, WNK2 (Homo sapiens, UniProt Q9Y3S1).
T14 construct: purchased Eurofins DiscoverX KINOMEscan
Briefly: KINOMEscan. Type of test: binding. Here is the method:
as §1

The target in another test is T15, PAK3 (Homo sapiens, UniProt O75914).
T15 construct: purchased Eurofins DiscoverX KINOMEscan
Put plainly: KINOMEscan. In kind it is binding. Here is the method:
as §1

A further test deals with T16, TTK (Homo sapiens, UniProt P33981).
T16 construct: purchased Eurofins DiscoverX KINOMEscan
Briefly: KINOMEscan. In kind it is binding. Here is the method: as §1

T2 sequence (Q86Z02 whole entry): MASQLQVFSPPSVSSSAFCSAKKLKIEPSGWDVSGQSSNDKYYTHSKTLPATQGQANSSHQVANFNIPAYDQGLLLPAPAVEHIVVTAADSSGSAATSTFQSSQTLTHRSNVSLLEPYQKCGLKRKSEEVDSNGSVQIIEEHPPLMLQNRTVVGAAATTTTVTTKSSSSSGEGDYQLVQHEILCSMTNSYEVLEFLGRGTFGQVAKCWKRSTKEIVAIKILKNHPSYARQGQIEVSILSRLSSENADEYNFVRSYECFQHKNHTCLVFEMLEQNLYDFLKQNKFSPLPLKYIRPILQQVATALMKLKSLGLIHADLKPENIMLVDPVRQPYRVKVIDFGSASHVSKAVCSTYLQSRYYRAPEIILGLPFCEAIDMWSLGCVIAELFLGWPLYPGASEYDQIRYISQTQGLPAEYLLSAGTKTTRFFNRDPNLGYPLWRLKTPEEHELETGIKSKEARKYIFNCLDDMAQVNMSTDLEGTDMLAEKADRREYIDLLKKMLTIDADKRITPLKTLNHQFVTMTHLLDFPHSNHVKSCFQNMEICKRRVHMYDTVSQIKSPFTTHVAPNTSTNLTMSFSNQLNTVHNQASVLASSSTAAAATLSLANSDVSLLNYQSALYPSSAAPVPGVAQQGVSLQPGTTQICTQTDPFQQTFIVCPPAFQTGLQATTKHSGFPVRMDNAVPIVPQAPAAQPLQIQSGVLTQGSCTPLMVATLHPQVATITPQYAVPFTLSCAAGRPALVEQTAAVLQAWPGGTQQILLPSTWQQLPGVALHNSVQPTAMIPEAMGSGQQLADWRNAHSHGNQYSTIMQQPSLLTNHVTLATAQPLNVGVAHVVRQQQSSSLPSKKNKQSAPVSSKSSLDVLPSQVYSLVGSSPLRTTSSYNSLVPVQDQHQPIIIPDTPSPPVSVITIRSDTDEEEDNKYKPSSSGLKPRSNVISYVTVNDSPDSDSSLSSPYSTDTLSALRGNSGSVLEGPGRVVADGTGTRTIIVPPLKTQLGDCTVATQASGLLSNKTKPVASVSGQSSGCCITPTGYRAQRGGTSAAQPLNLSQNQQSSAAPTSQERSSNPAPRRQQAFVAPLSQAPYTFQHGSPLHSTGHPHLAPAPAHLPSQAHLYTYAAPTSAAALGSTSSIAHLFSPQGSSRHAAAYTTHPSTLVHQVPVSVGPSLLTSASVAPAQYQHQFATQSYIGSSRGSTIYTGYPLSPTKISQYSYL
T3 sequence (P06213 28-1382): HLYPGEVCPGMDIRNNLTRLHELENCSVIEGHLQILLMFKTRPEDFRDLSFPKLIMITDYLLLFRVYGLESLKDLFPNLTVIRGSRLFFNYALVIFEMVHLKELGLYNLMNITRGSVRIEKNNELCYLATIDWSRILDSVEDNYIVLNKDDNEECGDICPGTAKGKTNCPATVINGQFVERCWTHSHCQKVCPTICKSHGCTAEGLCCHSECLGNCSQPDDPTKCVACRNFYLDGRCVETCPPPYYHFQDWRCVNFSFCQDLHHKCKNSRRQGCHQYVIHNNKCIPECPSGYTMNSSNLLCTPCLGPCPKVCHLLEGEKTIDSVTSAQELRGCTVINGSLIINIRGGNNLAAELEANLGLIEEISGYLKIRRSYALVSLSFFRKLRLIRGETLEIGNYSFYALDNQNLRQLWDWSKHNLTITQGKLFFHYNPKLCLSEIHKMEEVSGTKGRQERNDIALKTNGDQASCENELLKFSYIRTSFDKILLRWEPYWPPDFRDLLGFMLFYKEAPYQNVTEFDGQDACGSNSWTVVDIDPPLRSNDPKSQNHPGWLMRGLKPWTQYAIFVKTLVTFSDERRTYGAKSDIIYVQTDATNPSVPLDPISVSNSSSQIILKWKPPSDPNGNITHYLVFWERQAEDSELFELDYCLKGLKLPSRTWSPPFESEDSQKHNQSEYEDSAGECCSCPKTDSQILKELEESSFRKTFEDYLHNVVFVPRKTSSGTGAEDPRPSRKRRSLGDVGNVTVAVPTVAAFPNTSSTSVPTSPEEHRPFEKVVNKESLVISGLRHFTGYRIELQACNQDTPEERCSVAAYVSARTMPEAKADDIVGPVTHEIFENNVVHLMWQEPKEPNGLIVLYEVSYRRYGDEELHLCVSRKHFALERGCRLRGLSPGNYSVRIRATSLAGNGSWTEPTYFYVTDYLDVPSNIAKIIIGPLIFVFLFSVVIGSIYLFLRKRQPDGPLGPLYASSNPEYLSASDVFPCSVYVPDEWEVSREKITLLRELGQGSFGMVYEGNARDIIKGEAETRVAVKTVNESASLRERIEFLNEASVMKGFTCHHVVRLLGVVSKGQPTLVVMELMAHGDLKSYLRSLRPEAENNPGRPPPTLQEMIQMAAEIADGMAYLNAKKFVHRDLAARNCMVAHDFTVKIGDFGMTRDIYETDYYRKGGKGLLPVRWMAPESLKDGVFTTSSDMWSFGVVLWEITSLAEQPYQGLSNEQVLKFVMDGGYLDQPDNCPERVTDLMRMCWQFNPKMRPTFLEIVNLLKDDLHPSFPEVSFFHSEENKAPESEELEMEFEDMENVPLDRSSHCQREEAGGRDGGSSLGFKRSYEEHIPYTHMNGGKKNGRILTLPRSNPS
T13 sequence (Q9BUB5 whole entry): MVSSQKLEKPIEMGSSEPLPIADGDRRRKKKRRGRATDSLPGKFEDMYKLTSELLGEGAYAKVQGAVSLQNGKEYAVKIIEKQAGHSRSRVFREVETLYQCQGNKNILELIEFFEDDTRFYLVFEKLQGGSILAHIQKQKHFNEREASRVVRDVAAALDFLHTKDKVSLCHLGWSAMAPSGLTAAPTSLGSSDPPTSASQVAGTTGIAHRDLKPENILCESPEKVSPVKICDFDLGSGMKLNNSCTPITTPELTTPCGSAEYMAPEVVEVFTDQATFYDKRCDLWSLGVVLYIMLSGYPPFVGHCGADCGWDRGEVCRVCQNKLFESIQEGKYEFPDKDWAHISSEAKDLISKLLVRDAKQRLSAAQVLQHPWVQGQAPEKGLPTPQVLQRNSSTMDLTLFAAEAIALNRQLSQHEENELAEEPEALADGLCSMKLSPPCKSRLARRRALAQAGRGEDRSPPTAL
T16 sequence (P33981 whole entry): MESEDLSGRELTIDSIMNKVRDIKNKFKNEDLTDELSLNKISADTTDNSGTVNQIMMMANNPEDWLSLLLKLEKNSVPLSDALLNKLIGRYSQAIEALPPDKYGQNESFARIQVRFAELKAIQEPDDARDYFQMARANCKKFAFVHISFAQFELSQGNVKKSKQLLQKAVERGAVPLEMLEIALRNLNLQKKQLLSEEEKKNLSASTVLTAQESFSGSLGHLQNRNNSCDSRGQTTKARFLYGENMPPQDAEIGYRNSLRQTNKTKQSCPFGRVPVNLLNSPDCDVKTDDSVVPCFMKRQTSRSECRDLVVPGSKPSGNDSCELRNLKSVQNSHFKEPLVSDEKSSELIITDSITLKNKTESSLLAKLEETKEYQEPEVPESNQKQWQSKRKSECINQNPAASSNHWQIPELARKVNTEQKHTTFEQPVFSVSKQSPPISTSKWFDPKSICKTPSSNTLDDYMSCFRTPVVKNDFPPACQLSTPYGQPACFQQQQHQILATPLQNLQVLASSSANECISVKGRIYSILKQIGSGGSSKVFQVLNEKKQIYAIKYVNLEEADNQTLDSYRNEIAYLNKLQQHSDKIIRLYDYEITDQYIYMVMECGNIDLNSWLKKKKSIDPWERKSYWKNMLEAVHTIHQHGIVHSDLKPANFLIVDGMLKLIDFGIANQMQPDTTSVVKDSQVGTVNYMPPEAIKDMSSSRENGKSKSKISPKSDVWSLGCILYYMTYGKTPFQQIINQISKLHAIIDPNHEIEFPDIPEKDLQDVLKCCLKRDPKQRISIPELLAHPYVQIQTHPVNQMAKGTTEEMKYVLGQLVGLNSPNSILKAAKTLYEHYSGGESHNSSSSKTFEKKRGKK
T15 sequence (O75914 whole entry): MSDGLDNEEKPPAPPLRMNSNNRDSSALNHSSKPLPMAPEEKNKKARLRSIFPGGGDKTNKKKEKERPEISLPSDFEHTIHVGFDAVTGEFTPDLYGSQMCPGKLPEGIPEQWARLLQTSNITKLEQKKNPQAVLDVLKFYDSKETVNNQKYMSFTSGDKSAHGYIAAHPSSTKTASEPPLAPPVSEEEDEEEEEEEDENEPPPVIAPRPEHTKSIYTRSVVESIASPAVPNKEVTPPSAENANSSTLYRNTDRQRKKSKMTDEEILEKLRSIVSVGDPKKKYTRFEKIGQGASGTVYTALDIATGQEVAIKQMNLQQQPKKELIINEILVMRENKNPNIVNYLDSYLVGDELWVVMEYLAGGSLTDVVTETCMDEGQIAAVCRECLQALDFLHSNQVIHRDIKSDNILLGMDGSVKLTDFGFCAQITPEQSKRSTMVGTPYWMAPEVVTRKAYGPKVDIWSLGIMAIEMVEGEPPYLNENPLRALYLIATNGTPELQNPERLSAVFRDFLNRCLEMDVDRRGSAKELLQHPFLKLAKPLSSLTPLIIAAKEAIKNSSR
T12 sequence (O15530 whole entry): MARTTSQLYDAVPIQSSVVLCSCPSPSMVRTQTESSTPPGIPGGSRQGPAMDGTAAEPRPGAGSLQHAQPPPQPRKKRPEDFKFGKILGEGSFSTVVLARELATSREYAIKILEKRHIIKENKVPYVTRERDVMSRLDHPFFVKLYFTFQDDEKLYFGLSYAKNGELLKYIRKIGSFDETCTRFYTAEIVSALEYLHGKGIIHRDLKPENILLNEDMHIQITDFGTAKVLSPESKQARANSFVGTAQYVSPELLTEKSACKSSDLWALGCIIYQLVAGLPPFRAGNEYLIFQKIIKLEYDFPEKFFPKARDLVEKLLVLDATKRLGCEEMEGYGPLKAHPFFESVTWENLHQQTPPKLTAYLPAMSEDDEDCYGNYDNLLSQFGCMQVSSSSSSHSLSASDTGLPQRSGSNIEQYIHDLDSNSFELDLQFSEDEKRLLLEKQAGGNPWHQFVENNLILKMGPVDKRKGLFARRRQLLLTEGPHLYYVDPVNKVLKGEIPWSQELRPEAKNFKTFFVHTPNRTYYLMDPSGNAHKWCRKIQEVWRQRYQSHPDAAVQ

`O=C1Nc2c(ccc3c2CCCC3)C1=NO` [Compound 5a, 3-(Hydroxyimino)-1,3,6,7,8,9-hexahydro-2H-benzo[g]indol-2-one]: the IC50 in test [1] (24 h) was 6 ± 1.3 µM; in test [1] (Homo sapiens, THP-1, 24 h), < 6.1 µM. The equilibrium dissociation constant (Kd) at HASPIN was found to be 0.61 ± 0.08 µM; on HIPK1 it was 1.1 ± 0.07 µM.
On to `O=C1Nc2c(cc([N+](=O)[O-])c3c2CCCC3)C1=NO` [Compound 5d, 3-(Hydroxyimino)-5-nitro-1,3,6,7,8,9-hexahydro-2H-benzo[g]indol-2-one], for which the IC50 in [1] (24 h) is 5.5 ± 1.4 µM; in [1] (Homo sapiens, THP-1, 24 h) it was < 6.1 µM. The “Inhib. (%)” value in test [2] was determined as 22%; in the test with FLT3 (ITD, D835V) it was 65%; with FLT3 (ITD, F691L) it was 66%; in the test on FLT3 (ITD) it was 29%. Moreover, the inhibition at 10 µM is 1% at INSR; 99.5% at HASPIN (10 μM); 54% at PIP5K1A; 5% on FLT3 (K663Q); 52% on JNK3; 36% on PIK3CA (H1047Y). Moreover, the inhibition at 10 µM at MLCK came to 11%; on PIK3CA (E542K), 43%; on CLK4 it was 93.9%; on TAOK2 it was 37%; on PDPK1, 8%; on MKNK1, 72%. Moreover, the inhibition at 10 µM amounted to 0% on WNK2, 67% at PAK3, 98.5% at HIPK1 (10 μM) and 95.6% at TTK. The Kd was 0.165 ± 0.021 µM at HASPIN and 0.52 ± 0.113 µM at HIPK1.
